# From paper PMC12549899 (Nature Communications, 2025)
# “And” between values parts separate entries of the source, which are not always exact repeats. Equal entries are not always repeated. Where two headings read alike, the source gives them in different places.
# Target: T1, DrOTOP1 (Danio rerio, UniProt Q7ZWK8)
# T1 construct: A previously generated codon-optimized full-length DrOTOP1[8]; (UniProt: Q7ZWK8) construct; expressed in transfected cells; host or cells: HEK-293 (CRL-1573, ATCC)
# T1 sequence (Q7ZWK8 1-586): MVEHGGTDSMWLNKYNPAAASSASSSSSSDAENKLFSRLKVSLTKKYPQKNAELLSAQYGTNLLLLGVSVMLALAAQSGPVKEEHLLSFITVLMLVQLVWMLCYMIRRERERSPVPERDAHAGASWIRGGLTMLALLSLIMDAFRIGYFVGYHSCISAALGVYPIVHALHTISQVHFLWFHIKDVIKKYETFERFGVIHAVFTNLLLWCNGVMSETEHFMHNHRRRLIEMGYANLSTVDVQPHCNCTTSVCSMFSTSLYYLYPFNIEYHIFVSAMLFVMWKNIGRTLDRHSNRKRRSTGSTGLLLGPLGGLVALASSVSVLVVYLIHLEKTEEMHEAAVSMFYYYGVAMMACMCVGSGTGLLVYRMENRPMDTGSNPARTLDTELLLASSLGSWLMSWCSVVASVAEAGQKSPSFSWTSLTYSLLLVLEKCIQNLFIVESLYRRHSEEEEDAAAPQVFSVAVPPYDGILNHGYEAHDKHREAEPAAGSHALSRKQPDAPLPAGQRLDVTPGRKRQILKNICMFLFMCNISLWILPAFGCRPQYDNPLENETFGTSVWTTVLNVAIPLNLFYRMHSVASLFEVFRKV
# Experiment: Whole-cell patch-clamp, inhibition of acid-evoked currents, WT DrOTOP1 expressed in HEK-293 cells
# Assay type: cell-based, zebrafish (Danio rerio)
# Design: key to inhibition of acid-evoked current, mean (Mean 1): % inhibition = ((I2peak-I1)/I2peak)*100
# Settings: for inhibition at 200 µM: read-out: Inhibition of currents
# Source text: The 50 molecules identified were individually tested by whole-cell patch-clamp electrophysiology for effects on DrOTOP1 expressed in human embryonic kidney (HEK)−293 cells. […] This approach enabled us to observe the on- and off-responses of each compound. To quantify the effect of each compound, we compared the current magnitude during compound application immediately before wash-off, to the peak inward current following its removal (Supplementary Fig. 2A).
# HEK-293 cells (CRL-1573, ATCC) were cultured in DMEM (Thermofisher 11995073) containing 10% fetal bovine serum (Life Technology 16000044) and Penicillin-Streptomycin (100 I.U./mL) and (100 µg/mL), respectively. Cells were transfected with WT DrOTOP1 or mutant DrOTOP1 channels in 35 mm petri dishes, with ~ 500 ng DNA and 2 μL TransIT-LT1 transfection reagent (Mirus Bio Corporation, Cat # MIR2300) following the manufacturer’s protocol. All constructs were subcloned into a pcDNA3.1 vector that adds an N-terminal fusion tag consisting of an octahistidine tag followed by eGFP, a Gly-Thr-Gly-Thr linker and a 3C protease cleavage site ([…]) followed by WT DrOTOP1, WT mOTOP1, WT hOTOP1, or mutated DrOTOP1. Point mutations were generated via In-Fusion Cloning (Takara) using single-stranded DNA primers generated through IDT and sequence confirmed by Sanger sequencing (GeneWiz).
# Whole-cell patch-clamp recording was performed as previously described[6],[22],[25]. Recordings were made with an Axopatch 200B amplifier, digitized with a Digidata 1322a 16-bit data acquisition system, acquired with pClamp 8.2 and analyzed with Clampfit 10 (Molecular Devices). Recordings were sampled at 5 kHz and filtered at 1 kHz. Patch Pipettes with resistance of […] were fabricated from borosilicate glass, and only recordings with a giga-Ohm seal were used in analysis. Membrane potential was held at −80 mV for the duration of recordings. At the beginning of recordings and between, cells were washed with Tyrode’s solution (see below). Once a giga-Ohm seal was reached, cells were lifted and placed in front of microcapillary tubes controlled by a Fast-Step perfusion system (Warner Instruments) so that extracellular solutions could be rapidly exchanged during each experiment.
# Standard Tyrode’s solution consisted of 145 mM NaCl, 5 mM KCl, MgCl2, 2 mM CaCl2, 20 mM D-Glucose, and 10 mM HEPES (for pH 7.4). All other extracellular patch-clamp solutions contained 160 mM NMDG-Cl, 2 mM CaCl2, and the following buffers: 10 mM HEPES (for pH 7.4), 10 mM MES (for pH 6.5-5.5), 10 mM CHES for pH 10, and 10 mM HomoPIPES for (pH 5.0). pH adjusted with HCl. […] The pipette contained intracellular solution made up of 120 mM Cs-aspartate, 15 mM CsCl, 2 mM Mg-ATP, 5 mM EGTA, 2.4 mM CaCl2 (100 nM free Ca^2+), and 10 mM HEPES with a pH of 7.3. All extracellular solution osmolarity was adjusted to 300 mOsm and intracellular osmolarity was adjusted to 290 mOsm.
# All data are presented as mean ± SEM unless otherwise noted, and each data point represents an independent replicant. Inhibition of compounds was quantified as ((I2peak-I1)/(I2peak))*100, where I1 is the current immediately before wash-off and I2peak is the maximum recovered current (Supplementary Fig. 2). Hill coefficients were determined by the following equation: Y = Bmax*X^h/(Kd^h + X^h).
# [1] = 10 µM, pH 5, WT DrOTOP1, single cells
# [2] = 10 µM, pH 6, WT DrOTOP1, single cells
# [3] = 30 µM, pH 5, WT DrOTOP1, single cells
# [4] = 30 µM, pH 6, WT DrOTOP1, single cells
# [5] = 100 µM, pH 5, WT DrOTOP1, single cells
# [6] = 100 µM, pH 6, WT DrOTOP1, single cells
# [7] = 200 µM, pH 5.5, WT DrOTOP1, dose-response, single cells
# [8] = 300 µM, pH 5.5, WT DrOTOP1, single cells
# [9] = HEK293, pH 5, 30 µM, pH 5, WT DrOTOP1, single cells
# [10] = HEK293, pH 5.5, 200 µM, pH 5.5, WT DrOTOP1, dose-response, single cells
# [11] = HEK293, pH 5.5, 300 µM, pH 5.5, WT DrOTOP1, single cells
# [12] = HEK293, pH 6, 10 µM, pH 6, WT DrOTOP1, single cells
# [13] = HEK293, pH 6, 30 µM, pH 6, WT DrOTOP1, single cells
# [14] = HEK293, pH 6, 100 µM, pH 6, WT DrOTOP1, single cells
SMILES,Inhibition of currents [1],Inhibition of currents [2],Inhibition of currents [3],Inhibition of currents [4],Inhibition of currents [5],Inhibition of currents [6],Inhibition of currents [7],Inhibition of currents [8],inhibition at 30 µM [9],inhibition at 200 µM [10],inhibition at 300 µM [11],inhibition at 10 µM [12],inhibition at 30 µM [13],inhibition at 100 µM [14],"Hill coefficient (pH 5.0, WT DrOTOP1)","IC50 (pH 5.0, WT DrOTOP1)","Hill coefficient (pH 5.5, WT DrOTOP1)","IC50 (pH 5.5, WT DrOTOP1)","Hill coefficient (pH 6.0, WT DrOTOP1)","IC50 (pH 6.0, WT DrOTOP1)",further results
C=C(C)COc1ccccc1NC(=O)c1nc[nH]c1C [C2.2],57.3692% and 44.5762% and 37.4476% and 30.9804% and 33.0274%,62.6907% and 69.8462% and 72.5518% and 60.5453%,79.1499% and 75.7339% and 78.9474%,89.6104% and 92.0062%,98.8642% and 100.372%,101.656% and 100.935% and 99.4036%,99.9505% and 99.4475% and 98.9119%,99.8351% and 99.4122% and 98.63%,79.1%,100%,99.9%,62.3%,80.7%,100%,1.53,12.6 µM,1.52 and 1.5,6.67 µM,1.25,5.99 µM and 5.97 µM,"Inhibition of currents (0.1 µM, pH 5.5, WT DrOTOP1, single cells): 2.61% and 0.5081% and 0.05491%; Inhibition of currents (0.3 µM, pH 5.5, WT DrOTOP1, single cells): 3.209% and 3.843%; Inhibition of currents (1 µM, pH 5, WT DrOTOP1, single cells): 3.034% and 6.744% and 2.835%; Inhibition of currents (1 µM, pH 5.5, WT DrOTOP1, single cells): 3.496% and 5.882% and 11.0667%; Inhibition of currents (1 µM, pH 6, WT DrOTOP1, single cells): 7.93% and 17.0523% and 15.485%; Inhibition of currents (3 µM, pH 5.5, WT DrOTOP1, single cells): 21.7626% and 20.6603%; Inhibition of currents (30 µM, pH 5.5, WT DrOTOP1, single cells): 91.4446% and 86.3672% and 87.3001% and 85.4679%; Inhibition of pH 5.5-induced currents, screen 2 (200 µM compound, HEK-293 cells expressing DrOTOP1, Vm -80 mV, values of single cells, FDA 1-3 = FDA-approved drugs): fully blocked; inhibition at 100 µM (HEK293, pH 5, 100 µM, pH 5, WT DrOTOP1, single cells): 99.1%; inhibition at 0.3 µM (HEK293, pH 5.5, 0.3 µM, pH 5.5, WT DrOTOP1, single cells): 2.64%; inhibition at 3 µM (HEK293, pH 5.5, 3 µM, pH 5.5, WT DrOTOP1, single cells): 17%; inhibition at 30 µM (HEK293, pH 5.5, 30 µM, pH 5.5, WT DrOTOP1, single cells): 88.3%; inhibition at 100 µM (HEK293, pH 5.5, 100 µM, pH 5.5, WT DrOTOP1, single cells): 99.4%; Mean, Fig 5N (WT + C2.2, n=8): 31.97; inhibition of acid-evoked current, mean (Mean 1) (WT DrOTOP1, Supp. Fig 5E stats): 99.31; inhibition of acid-evoked current, mean (Mean 1) (WT DrOTOP1, Supp. Fig 5F stats): 65.72"
"O=C(/C(=N\O)c1ccccc1)c1ccccc1 [C11, benzil monoxime]",4.424% and 3.103%,7.181% and 5.566% and 5.627%,24.2292% and 16.076%,21.9002% and 19.6399% and 27.9569%,50.6107% and 59.4827% and 56.6039% and 73.4375%,58.9165% and 51.9948% and 54.7438% and 59.958%,92.006% and 94.7798% and 86.5734%,100.665% and 98.5727% and 97.2447%,16.2%,96.6%,102%,5.56%,19%,68.6%,1.88,75.2 µM,2.2 and 2.21,76 µM and 76.3 µM,1.67,71.5 µM,"Inhibition of currents (10 µM, pH 5.5, WT DrOTOP1, single cells or mean): 3.913% and 2.872% and 1.269% and 1.559%; Inhibition of pH 5.5-induced currents, screen 1 (200 µM compound, HEK-293 cells expressing DrOTOP1, Vm -80 mV, values of single cells): nearly fully inhibited; Inhibition of currents (200 µM, pH 5, WT DrOTOP1, single cells): 88.3451% and 83.853%; Inhibition of currents (200 µM, pH 6, WT DrOTOP1, single cells): 84.9844% and 81.9304% and 93.4599%; Inhibition of currents (300 µM, pH 5, WT DrOTOP1, single cells): 96.0707% and 96.7562%; Inhibition of currents (300 µM, pH 6, WT DrOTOP1, single cells): 97.5242% and 103.48%; inhibition at 10 µM (HEK293, pH 5, 10 µM, pH 5, WT DrOTOP1, single cells): 3.81%; inhibition at 200 µM (HEK293, pH 5, 200 µM, pH 5, WT DrOTOP1, single cells): 80.8%; inhibition at 300 µM (HEK293, pH 5, 300 µM, pH 5, WT DrOTOP1, single cells): 101%; inhibition at 200 µM (HEK293, pH 6, 200 µM, pH 6, WT DrOTOP1, single cells): 89.5%; inhibition at 300 µM (HEK293, pH 6, 300 µM, pH 6, WT DrOTOP1, single cells): 99.8%"
